Patent US7741325B2, “Benzo[b]chromeno-naphthyridin-7-one and pyrano[2′,3′:7,8]quino[2,3-b]quinoxalin-7-one compounds” (priority 2004, dated 2010)

What was measured:
[1] = tested on: KB-3-1; experiment: In vitro cytotoxicity, tetrazolium microculture assay, KB-3-1; type: cell-based; details: 96 h; KB-3-1 human epidermoid carcinoma, incubated for 4 days; read-out: IC50, the concentration of cytotoxic compound that inhibits the proliferation of the treated cells by 50%
Method: (§1) Two cell lines were used: • 1 murine leukaemia, L1210, • 1 human epidermoid carcinoma: KB-3-1
(§2) The cells are cultured in RPMI 1640 complete culture medium comprising 10% fcetal calf serum, 2 mM glutamine, 50 units/ml of penicillin, 50 μg/ml of streptomycin and 10 mM Hepes, pH 7.4. The cells are distributed on microplates and are exposed to the cytotoxic compounds. The cells are then incubated for 2 days (L1210) or 4 days (KB-3-1) in an incubator at 37° C. in the presence of 5% CO2. The number of viable cells is then quantified by a colorimetric assay, the tetrazolium microculture assay (Cancer Res. 1987, 47, 939-942).
(§3) The results are expressed as IC50, the concentration of cytotoxic compound that inhibits the proliferation of the treated cells by 50%.

[2] = tested on: L1210; experiment: In vitro cytotoxicity, tetrazolium microculture assay, L1210; type: cell-based; details: Mus musculus, 48 h; L1210 murine leukaemia, incubated for 2 days; read-out: IC50, the concentration of cytotoxic compound that inhibits the proliferation of the treated cells by 50%
Method: as §1, §2, §3

`COc1cc2c(c3c1c(=O)c1cc4ccccc4nc1n3C)[C@@H](O)[C@@H](O)C(C)(C)O2` (racemic) [Example 3, (±)-cis-1,2-Dihydroxy-6-methoxy-3,3,14-trimethyl-1,2,3,14-tetrahydro-7H-benzo[b]chromeno[6,5-g][1,8]naphthyridin-7-one] showed a melting point of 298 °C.

In the case of `COc1cc2c(c3c1c(=O)c1cc4ccccc4nc1n3C)[C@@H](OC(C)=O)[C@@H](OC(C)=O)C(C)(C)O2` (racemic) [Example 4, (±)-cis-1,2-Diacetoxy-6methoxy-3,3,14-trimethyl-1,2,3,14-tetrahydro-7H-benzo[b]chromeno[6,5-g][1,8]naphthyridin-7-one], the IC50 [1] is reported as 37 nM, the melting point is reported as 244 °C and the IC50 [2] is reported as 320 nM.

`COc1cc2c(c3c1c(=O)c1cc4ccccc4nc1n3C)[C@H]1OC(=O)O[C@H]1C(C)(C)O2` (racemic) [Example 5, (±)-cis-7-Methoxy-4,4,15-trimethyl-15,15c-dihydro-4H-benzo[b][1,3]-dioxolo[4′,5′:3,4]chromeno[6,5-g][1,8]naphthyridin-2,8[3aH]-dione] gave a melting point of 234 °C.

`Cn1c2nc3ccccc3cc2c(=O)c2c(O)cc3c(c21)C=CC(C)(C)O3` [Example 1, 6-Hydroxy-3,3,14-trimethyl-3,14-dihydro-7H-benzo-[b]chromeno-[6,5-g][1,8]naphthyridin-7-one] gave a melting point of 278 °C.

Work on `COc1cc2c(c3c1c(=O)c1cc4ccccc4nc1n3C)C=CC(C)(C)O2` [Example 2, 6-Methoxy-3,3,14-trimethyl-3,14-dihydro-7H-benzo[b]chromeno-[6,5-g][1,8]naphthyridin-7-one] yielded a melting point of 270 °C.
